Results on 2 compounds are retold here after PMC11447181 (Nature Communications, 2024).

Data set [1] addresses T1, hSLC19A3-wt overexpressed in Expi293F cells (Homo sapiens, UniProt Q9BZV2).
T1 construct: full-length, wildtype human SLC19A3; expressed in transfected cells; host or cells: Expi293F
Nature of the data set: Mass spectrometry-based cellular thiamine-d3 uptake assay. Format: cell-based. Particulars: 200 μM compound, 2 μM thiamine-d3, 5 min, n = 3. The protocol:
The cells were then pelleted for 5 min at 250×g and resuspended in 1×PBS (pH 7.4) at a cell density of 2 million cells per mL. The cell suspension was subsequently transferred to a 96-deep well plate in three technical replicates per condition (n = 3, 1 mL per well, corresponding to 2 million cells per condition). 200 μM of the selected compounds were added to the respective wells and the cells were incubated for 1 min on a shaking platform. […] Afterwards, the cells were pelleted for 5 min at 500×g and washed 3× with 1 mL 1×PBS (pH7.4), before transferring them to a fresh 96-deep well plate. The cell pellets were stored at –70 °C. For the LC-MS/MS analysis, the samples were extracted by adding 500 µL of a mixture of H2O:MeOH:ACN (1:1:1, v/v), containing 5% (v/v) formic acid. After vortexing and ultrasonication in a water bath for 5 min at 4 °C, samples were incubated for 20 min at –20 °C. […] The supernatants were then transferred for LC-MS analysis, which was initiated within one hour after sample preparation. LC-MS/MS analysis was performed on a Vanquish UHPLC system coupled to an Orbitrap Exploris 240 high-resolution mass spectrometer (Thermo Fisher Scientific, MA, USA) in positive ESI (electrospray ionization) mode. Chromatographic separation was carried out on an Atlantis Premier BEH Z-HILIC column (Waters, MA, USA; 2.1 mm × 100 mm, 1.7 µm) at a flow rate of 0.25 mL/min. The mobile phase consisted of water:acetonitrile (9:1, v/v; mobile phase phase A) and acetonitrile:water (9:1, v/v; mobile phase B), which were modified with a total buffer concentration of 10 mM ammonium formate. The aqueous portion of each mobile phase was adjusted to pH 3.0 via addition of formic acid. The following gradient (8 min total run time including re-equilibration) was applied (time [min]/%B): 0/90, 3/85, 3.5/60, 4/60, 5/90, 8/90. Column temperature was maintained at 40 °C, the autosampler was set to 4 °C and sample injection volume was set to 3 µL. Analytes were recorded via a full scan with a mass resolving power of 120,000 over a mass range from 60 to 900 m/z (scan time: 100 ms, RF lens: 70%).
All experimental samples were measured in a randomized manner. Pooled quality control (QC) samples were prepared by mixing equal aliquots from each processed sample. Multiple QCs were injected at the beginning of the analysis in order to equilibrate the analytical system. A QC sample was analyzed after every 6th experimental sample to monitor instrument performance throughout the sequence. For determination of background signals and subsequent background subtraction, an additional processed blank sample was recorded. Data was processed using TraceFinder 5.1 and raw peak area data was exported for relative metabolite quantification.

The conditions of data set [2]: clinical trial ID NCT01437787; cited from earlier work.
A further data set relates to SLC19A3. The note with it: cited from earlier work.
The test system of a further data set is OCT1 (SLC22A1). The note with it: read-out: Km (thiamine uptake); cited from earlier work.
For the next data set, the target named is hSLC19A3 N297A (Homo sapiens, UniProt Q9BZV2, N297A). The note with it: N297A mutant. The protocol: (§1) The thermal stability of the hSLC19A3 constructs and their binding affinities for small molecules were determined by nanoDSF, using a Prometheus NT.48 (NanoTemper Technologies). For sample preparation, the protein was diluted to a final concentration of 4 μM in SEC buffer and supplied with the respective compounds in a concentration range from 2 μM to 2 mM. Before measurement, the samples were incubated for 30 min at room temperature. Melting scans were performed at a temperature range from 20 to 95 °C with a temperature increment of 1 °C per minute. Thermal unfolding curves were recorded by measuring the ratio of the tryptophan-fluorescence at 350 nm (F350) and 330 nm (F330). The protein melting temperature (Tm) of a given sample was determined as the inflection point of the thermal unfolding curves, or the local maximum of its first derivative. The measured curves were analysed using the manufacturer’s software (PR.ThermControl, v 2.1.2, NanoTemper Technologies). Based on the determined Tm values, ligand induced thermal shifts (ΔTm) were determined as the difference between the melting temperature of the ligand-bound state (Tm) and the apo state (Tm^apo).
Chain of hSLC19A3 N297A (Q9BZV2 with tags, fused parts or gaps N297A): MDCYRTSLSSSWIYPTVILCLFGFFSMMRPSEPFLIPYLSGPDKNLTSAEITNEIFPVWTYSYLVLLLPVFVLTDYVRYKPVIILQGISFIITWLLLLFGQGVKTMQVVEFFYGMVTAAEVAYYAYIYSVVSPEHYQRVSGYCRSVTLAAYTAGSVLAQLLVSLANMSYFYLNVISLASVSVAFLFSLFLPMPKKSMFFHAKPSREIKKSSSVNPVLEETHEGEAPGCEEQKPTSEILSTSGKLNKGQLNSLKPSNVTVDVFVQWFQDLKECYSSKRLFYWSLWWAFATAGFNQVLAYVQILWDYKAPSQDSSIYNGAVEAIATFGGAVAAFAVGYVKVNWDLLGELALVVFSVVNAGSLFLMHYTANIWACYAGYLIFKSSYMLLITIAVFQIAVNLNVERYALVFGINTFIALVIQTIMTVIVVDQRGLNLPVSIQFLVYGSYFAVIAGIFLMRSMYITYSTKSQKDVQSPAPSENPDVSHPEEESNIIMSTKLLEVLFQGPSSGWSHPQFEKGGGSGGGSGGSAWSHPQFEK
As R, Tstd and L are known and the ΔTm and Tm^apo are experimentally determined, non-linear curve fitting can be used to estimate Ea1 and Kd,app. […]

A further data set concerns MFSD1. Particulars: negative control; thiamine titration 1.95 μM to 2 mM. The method, then:
as §1

The target of a further data set is T2, hSLC19A3-wt (Homo sapiens, UniProt Q9BZV2).
T2 construct: full-length, wildtype human SLC19A3; made in house; host or cells: Expi293F
T2 sequence (Q9BZV2 with tags, fused parts or gaps): as the sequence (Q9BZV2 with tags, fused parts or gaps N297A) above, with A297N counted along it
The data set is described as follows: nanoDSF thermal shift assay / apparent binding affinity, wildtype transporter. For orientation: In DSF a fluorescence change marks the thermal transition of the protein.

Another data set has as its target hSLC19A3 W59A (Homo sapiens, UniProt Q9BZV2, W59A). Nature of the data set: biochemical. The method, then:
as §1
(§2) As R, Tstd and L are known and the ΔTm and Tm^apo are experimentally determined, non-linear curve fitting can be used to estimate Ea1 and Kd,app. The fitting was performed using symfit (v. 0.5.3), as described in Kotov et al., based on theoretical considerations formulated in Hall, 2019[56].

The target in a further data set is hSLC19A3-Glu320Gln (Homo sapiens, UniProt Q9BZV2, E320Q). The data set is described as follows: biochemical. The protocol:
as §1, §2

A further data set has as its target hSLC19A3-E110Q (Homo sapiens, UniProt Q9BZV2, E110Q). Nature of the data set: biochemical. Particulars: Kd,app for thiamine, E110Q mutant; n = 3. The protocol: as §1, §2
The target in the next data set is hSLC19A3 Y113A (Homo sapiens, UniProt Q9BZV2, Y113A). Nature of the data set: biochemical. The method, then:
as §1, §2

The next data set has as its target hSLC19A3-Lys44Glu (Homo sapiens, UniProt Q9BZV2, K44E). Nature of the data set: biochemical. The method, then: as §1, §2
A further data set has as its target hSLC19A3-Glu32Lys (Homo sapiens, UniProt Q9BZV2, E32K). The data set is described as follows: biochemical. The note with it: E32K mutant. The method, then: as §1, §2
Data set [3] addresses hSLC19A3-gf (N45Q, N166Q) (Homo sapiens, UniProt Q9BZV2, N166Q/N45Q). The data set is described as follows: biochemical. The protocol: as §1, §2
The next data set concerns the target hSLC19A3 Q300A (Homo sapiens, UniProt Q9BZV2, Q300A). Nature of the data set: biochemical. The method, then: as §1, §2
The next data set addresses hSLC19A3 Y151F (Homo sapiens, UniProt Q9BZV2, Y151F). The data set is described as follows: biochemical. The protocol:
as §1, §2

In a further data set the target is hSLC19A3 Y151A (Homo sapiens, UniProt Q9BZV2, Y151A). Nature of the data set: biochemical. The protocol:
as §1, §2

The next data set has as its target hSLC19A3 Thr422Ala (Homo sapiens, UniProt Q9BZV2, T422A). Nature of the data set: biochemical. The method, then: as §1, §2
A further data set has as its target hSLC19A3 F56A (Homo sapiens, UniProt Q9BZV2, F56A). The data set is described as follows: biochemical. The protocol: as §1, §2
Another data set has as its system SLC19A2. Particulars: read-out: Km (thiamine uptake); cited from earlier work.

Where “and” joins values, the source holds several entries; their conditions need not be identical. Equal entries are not always repeated. Entries after “also recorded” stand apart in the source; their conditions may differ.

Chain of hSLC19A3-Glu32Lys (Q9BZV2 with tags, fused parts or gaps E32K): as the sequence (Q9BZV2 with tags, fused parts or gaps N297A) above, with E32K, A297N counted along it
Chain of hSLC19A3-E110Q (Q9BZV2 with tags, fused parts or gaps E110Q): as the sequence (Q9BZV2 with tags, fused parts or gaps N297A) above, with E110Q, A297N counted along it
Chain of hSLC19A3 W59A (Q9BZV2 with tags, fused parts or gaps W59A): as the sequence (Q9BZV2 with tags, fused parts or gaps N297A) above, with W59A, A297N counted along it
Chain of hSLC19A3-Glu320Gln (Q9BZV2 with tags, fused parts or gaps E320Q): as the sequence (Q9BZV2 with tags, fused parts or gaps N297A) above, with A297N, E320Q counted along it
Chain of hSLC19A3 Y113A (Q9BZV2 with tags, fused parts or gaps Y113A): as the sequence (Q9BZV2 with tags, fused parts or gaps N297A) above, with Y113A, A297N counted along it
Chain of hSLC19A3 Y151F (Q9BZV2 with tags, fused parts or gaps Y151F): as the sequence (Q9BZV2 with tags, fused parts or gaps N297A) above, with Y151F, A297N counted along it
Chain of hSLC19A3-Lys44Glu (Q9BZV2 with tags, fused parts or gaps K44E): as the sequence (Q9BZV2 with tags, fused parts or gaps N297A) above, with K44E, A297N counted along it
Chain of hSLC19A3-gf (N45Q, N166Q) (Q9BZV2 with tags, fused parts or gaps N45Q/N166Q): as the sequence (Q9BZV2 with tags, fused parts or gaps N297A) above, with N45Q, N166Q, A297N counted along it
T1 sequence (Q9BZV2 with tags, fused parts or gaps): as the sequence (Q9BZV2 with tags, fused parts or gaps N297A) above, with A297N counted along it
Chain of hSLC19A3 F56A (Q9BZV2 with tags, fused parts or gaps F56A): as the sequence (Q9BZV2 with tags, fused parts or gaps N297A) above, with F56A, A297N counted along it
Chain of hSLC19A3 Thr422Ala (Q9BZV2 with tags, fused parts or gaps T422A): as the sequence (Q9BZV2 with tags, fused parts or gaps N297A) above, with A297N, T422A counted along it
Chain of hSLC19A3 Q300A (Q9BZV2 with tags, fused parts or gaps Q300A): as the sequence (Q9BZV2 with tags, fused parts or gaps N297A) above, with A297N, Q300A counted along it
Chain of hSLC19A3 Y151A (Q9BZV2 with tags, fused parts or gaps Y151A): as the sequence (Q9BZV2 with tags, fused parts or gaps N297A) above, with Y151A, A297N counted along it

With `Cc1cnc(Nc2ccc(OCCN3CCCC3)cc2)nc1Nc1cccc(S(=O)(=O)NC(C)(C)C)c1` [fedratinib], the “inhibition of thiamine uptake through hSLC19A3, in words” value in data set [1] is recorded as “strongly suppressed the thiamine transport activity of hSLC19A3”. The “adverse event in patients” value in data set [2] is “induced the development of Wernicke’s encephalopathy”. Moreover, the “substrate status at the transporter” value with SLC19A3 is listed as “xenobiotic substrates of the transporter”.

In general, Km refers to the concentration of substrate that gives half-maximal velocity. For orientation: ΔTm means the shift of the melting midpoint relative to a reference. `Cc1ncc(C[n+]2csc(CCO)c2C)c(N)n1` [thiamine]: the results for the Km with OCT1 (SLC22A1), in the data set on SLC19A3 (read-out: Km (thiamine uptake)) and in the data set with SLC19A2 were roughly 780 µM, 2 to 7 µM and 2 to 7 µM, respectively. Besides, the “loss in binding affinity for thiamine versus wildtype” value at hSLC19A3 N297A was ~ 250 fold. The “response to thiamine, in words” value in the data set with MFSD1 is recorded as “shows no response to thiamine”. Besides, the Kd was ~12 µM and 12.7 µM at hSLC19A3-wt (Kd,app (apparent dissociation constant), concentration-dependent thermal shifts, fitted for 25 °C, n = 3, mean ± s.d.); 8.3 ± 1 µM on hSLC19A3 W59A; 284 ± 45 µM at hSLC19A3-Glu320Gln; 85 µM and 85.2 µM and ~85 µM at hSLC19A3-E110Q; 15.5 ± 2 µM at hSLC19A3 Y113A; 2.1 ± 0.1 µM on hSLC19A3-Lys44Glu. In addition, the Kd at hSLC19A3-Glu32Lys (Kd,app for thiamine, n = 3) was determined as 145 µM; in [3], 10.4 ± 0.9 µM; on hSLC19A3 Q300A, 5.6 ± 1.4 µM; at hSLC19A3 Y151F, 18.7 ± 9.1 µM; on hSLC19A3 Y151A it was 17.8 ± 1.8 µM; at hSLC19A3 Thr422Ala, 172 ± 35 µM. For the same compound, the Kd at hSLC19A3 F56A is 4 ± 0.3 µM. For the same compound, the ΔTm at 2000 µM on hSLC19A3-wt (read-out: ΔTm (thermal stabilisation of hSLC19A3)) came to 10.9 ± 0.3 °C. Further, the “thermal shift / interaction with hSLC19A3, in words” value on hSLC19A3-wt (thermal shift screen at 20 μM and 200 μM compound) is listed as “induces a strong stabilisation; also recorded: strong stabilisation of the transporter”. For the same compound, the “effect of mutation on thiamine binding, in words” value at hSLC19A3 W59A (W59A mutant (aromatic clamp)) and at hSLC19A3 Y113A (Y113A mutant (aromatic clamp)) was “did not impair thiamine binding” each time. The “decrease in affinity for thiamine versus wildtype” value on hSLC19A3-Glu320Gln (E320Q mutant) amounted to 20 fold. For the same compound, on hSLC19A3-Lys44Glu (K44E mutant), the “affinity for thiamine versus wildtype” value is “six-fold higher affinity”. Further, the “drop in affinity for thiamine versus wildtype” value at hSLC19A3-Glu32Lys is 10 fold and > 10 fold. Further, the “effect of the glycosylation-site mutations on thiamine binding, in words” value in data set [3] (thermal stability experiments) was “did not show any interference of these mutations with thiamine binding”. Also, the “effect of mutation on thiamine affinity, in words” value at hSLC19A3 Y151F (Y151F mutant) is recorded as “no strong effect on the affinity for thiamine was observed”.
